The record followed here is patent US8877683B2, “Substituted pyridines having herbicidal activity” (BASF SE, priority 2010, dated 2014).

Common to all, as to assay: greenhouse post-emergence herbicidal test
Assay type in all cases: in vivo
Holding throughout (details): application rate 0.25 kg/ha

In experiment [1] the test system is ECHCG (Echinocloa crus-galli). From the text:
(§1) The culture containers used were plastic flowerpots containing loamy sand with approximately 3.0% of humus as the substrate. The seeds of the test plants were sown separately for each species.
(§2) For the post-emergence treatment, the test plants were first grown to a height of 3 to 15 cm, depending on the plant habit, and only then treated with the active ingredients which had been suspended or emulsified in water. For this purpose, the test plants were either sown directly and grown in the same containers, or they were first grown separately as seedlings and transplanted into the test containers a few days prior to treatment.
(§3) Depending on the species, the plants were kept at 10-25° C. or 20-35° C. The test period extended over 2 to 4 weeks. During this time, the plants were tended, and their response to the individual treatments was evaluated.
(§4) Evaluation was carried out using a scale from 0 to 100. 100 means no emergence of the plants, or complete destruction of at least the aerial moieties, and 0 means no damage, or normal course of growth. A good herbicidal activity is given at values of at least 70 and a very good herbicidal activity is given at values of at least 85.
(§5) The herbicidal activity of the substituted pyridine compounds I-2 and I-13 according to this invention was tested in comparison with the corresponding pyrazine compounds Nos. C-11 and C-19 disclosed on page 48 of WO 2010/130970 (not of the invention). These comparative experiments were performed at an application rate of 0.25 kg/ha in a post-emergence treatment by following the same procedure as described above in the Use Examples. The results of Comparative Examples 1 and 2 are indicated below in Tables II and III.

The test system of experiment [2] is ALOMY (Alopercurus myosuroides).
Excerpt: as §1, §2, §3, §4, §5

For the next experiment, the system named is AVEFA (Avena fatua).
Excerpt: as §1, §2, §3, §4, §5

Experiment [3] deals with BRSNW (Brassica napus (winter)).
Excerpt: as §1, §2, §3, §4, §5

For experiment [4], the system named is CHEAL (Chenopodium album).
Excerpt: as §1, §2, §3, §4, §5

Take `O=S1(=O)Cc2cccnc2C(O)=C1c1ccccc1C(F)(F)F` [I-2, 6,6-Dioxo-7-(2-trifluoromethyl-phenyl)-5,6-dihydro-thiopyrano[4,3-b]pyridin-8-ol]: in experiment [1], the “herbicidal activity against ECHGG” value is “very good (a very good herbicidal activity is given at values of at least 85)”. Further, the “herbicidal activity against ALOMY” value in experiment [2] is on record as “very good (a very good herbicidal activity is given at values of at least 85)”. The “herbicidal activity against AVEFA” value with AVEFA (Avena fatua) is reported as “very good (a very good herbicidal activity is given at values of at least 85)”.
On to `CC(C)(C)C(=O)OC1=C(c2ccccc2C(F)(F)F)S(=O)(=O)Cc2cccnc21` [I-8, 2,2-Dimethyl-propionic acid 6,6-dioxo-7-(2-trifluoromethyl-phenyl)-5,6-dihydro-thiopyrano[4,3-b]pyridin-8-yl ester], for which, in experiment [2], the “herbicidal activity against ALOMY” value is “good (A good herbicidal activity is given at values of at least 70)”.
For `O=S1(=O)Cc2cccnc2C(O)=C1c1c(Cl)cccc1Cl` [I-13], in experiment [3], the “herbicidal activity against BRSNW” value is reported as “very good (a very good herbicidal activity is given at values of at least 85)”. For the same compound, in experiment [1], the “herbicidal activity against ECHGG” value is “very good (a very good herbicidal activity is given at values of at least 85)”. Moreover, the “herbicidal activity against CHEAL” value in experiment [4] is recorded as “very good (a very good herbicidal activity is given at values of at least 85)”.
For the compound `O=S1(=O)Cc2nccnc2C(O)=C1c1ccccc1C(F)(F)F` [reference compound], the “herbicidal activity against ECHGG” value in experiment [1] was “less than good”. In experiment [2], the “herbicidal activity against ALOMY” value is “good (A good herbicidal activity is given at values of at least 70)”. Further, the “herbicidal activity against AVEFA” value in the experiment on AVEFA (Avena fatua) is “less than good”.
For the compound `O=S1(=O)Cc2nccnc2C(O)=C1c1c(Cl)cccc1Cl` [reference compound], in experiment [3], the “herbicidal activity against BRSNW” value is given as “good (A good herbicidal activity is given at values of at least 70)”. In experiment [1], the “herbicidal activity against ECHGG” value is recorded as “less than good”. The “herbicidal activity against CHEAL” value in experiment [4] was “less than good”.
